Results taken from ChEMBL document CHEMBL5113441, “Exploration of 4-(1H-indol-3-yl)cyclohex-3-en-1-amine analogues as HDAC inhibitors: Design, synthesis, biological evaluation and modelling studies” (Bioorg Med Chem Lett, 2022).
Calls of active or inactive are those of the source. No cut-off for these calls is given here.

Columns and labels:
MCF7 = assay: Antiproliferative activity against human MCF7 cells measured after 72 hrs; assay type: functional, cell-based; conditions: MCF7, 72 h
HCT-116 [1] = assay: Antiproliferative activity against human HCT-116 cells measured after 72 hrs; assay type: functional, cell-based; conditions: HCT-116, 72 h
A549 = assay: Antiproliferative activity against human A549 cells measured after 72 hrs; assay type: functional, cell-based; conditions: A549, 72 h
SW480 = assay: Antiproliferative activity against human SW480 cells measured after 72 hrs; assay type: functional, cell-based; conditions: SW480, 72 h
Homo sapiens [2] = species: Homo sapiens; assay: Selectivity ratio of IC50 for HDAC6 (unknown origin) to IC50 for HDAC2 (unknown origin)
Histone deacetylase 3 = Histone deacetylase 3 (Homo sapiens, UniProt O15379); assay: Inhibition of HDAC3 (unknown origin)
HCT-116 [3] = assay: Inhibition of colony formation in human HCT-116 cells; assay type: functional, cell-based; conditions: dose 50-200 nM, DDE = dose-dependent effect
HCT-116 [4] = assay: Induction of apoptosis in human HCT-116 cells assessed as apoptotic cells at 200 nM measured after 48 hrs by Annexin-FITC/propidium iodide staining based flow cytometry relative to control; assay type: functional
[5] = molecular target: T1, Protein deacetylase HDAC6 (Homo sapiens, UniProt Q9UBN7); assay: Inhibition of HDAC6 (unknown origin)
T1 sequence (Q9UBN7 whole entry): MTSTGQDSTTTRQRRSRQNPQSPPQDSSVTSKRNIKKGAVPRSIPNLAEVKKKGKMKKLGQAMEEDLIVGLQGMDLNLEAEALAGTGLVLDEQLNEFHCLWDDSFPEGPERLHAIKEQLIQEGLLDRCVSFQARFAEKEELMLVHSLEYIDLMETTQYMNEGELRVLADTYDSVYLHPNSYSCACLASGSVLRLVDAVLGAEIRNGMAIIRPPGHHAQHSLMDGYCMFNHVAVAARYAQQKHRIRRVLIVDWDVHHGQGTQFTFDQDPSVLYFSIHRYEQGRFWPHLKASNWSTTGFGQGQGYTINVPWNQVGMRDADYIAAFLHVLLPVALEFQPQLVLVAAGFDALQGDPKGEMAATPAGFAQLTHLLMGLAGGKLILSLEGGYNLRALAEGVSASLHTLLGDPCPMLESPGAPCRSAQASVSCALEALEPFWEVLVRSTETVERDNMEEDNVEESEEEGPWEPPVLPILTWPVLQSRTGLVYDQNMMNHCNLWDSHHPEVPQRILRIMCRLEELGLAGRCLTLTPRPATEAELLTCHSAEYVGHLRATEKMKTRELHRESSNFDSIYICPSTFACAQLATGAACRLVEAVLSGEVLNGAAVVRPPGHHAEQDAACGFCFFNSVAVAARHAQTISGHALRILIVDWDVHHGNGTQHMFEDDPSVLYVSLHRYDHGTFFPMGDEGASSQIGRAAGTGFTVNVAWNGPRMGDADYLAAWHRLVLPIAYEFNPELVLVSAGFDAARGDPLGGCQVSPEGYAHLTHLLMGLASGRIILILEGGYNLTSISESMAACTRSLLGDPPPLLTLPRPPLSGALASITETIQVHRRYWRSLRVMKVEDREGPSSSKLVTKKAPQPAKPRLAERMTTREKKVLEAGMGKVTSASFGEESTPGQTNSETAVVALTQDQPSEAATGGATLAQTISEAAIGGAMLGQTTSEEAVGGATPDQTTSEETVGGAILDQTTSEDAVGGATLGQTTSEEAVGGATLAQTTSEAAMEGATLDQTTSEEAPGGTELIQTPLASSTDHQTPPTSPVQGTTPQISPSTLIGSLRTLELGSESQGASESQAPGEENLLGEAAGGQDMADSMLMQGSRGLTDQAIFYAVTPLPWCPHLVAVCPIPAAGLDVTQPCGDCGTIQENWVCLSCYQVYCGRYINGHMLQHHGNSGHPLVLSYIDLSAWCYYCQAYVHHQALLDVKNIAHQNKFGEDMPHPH

Histone deacetylase 8 = molecular target: T2, Histone deacetylase 8 (Homo sapiens, UniProt Q9BY41); assay: Inhibition of HDAC8 (unknown origin)
T2 sequence (Q9BY41 whole entry): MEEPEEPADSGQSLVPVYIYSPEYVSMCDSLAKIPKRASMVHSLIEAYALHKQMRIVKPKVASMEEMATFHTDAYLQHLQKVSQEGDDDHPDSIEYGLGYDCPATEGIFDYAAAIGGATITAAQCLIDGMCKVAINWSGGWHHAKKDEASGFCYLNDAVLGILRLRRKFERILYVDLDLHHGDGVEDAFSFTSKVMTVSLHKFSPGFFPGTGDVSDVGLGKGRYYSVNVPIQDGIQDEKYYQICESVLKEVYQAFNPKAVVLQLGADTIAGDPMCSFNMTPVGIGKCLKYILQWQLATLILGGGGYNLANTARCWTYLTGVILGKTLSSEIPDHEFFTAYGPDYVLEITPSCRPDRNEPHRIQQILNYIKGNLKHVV

HCT-116 [6] = assay: Antimigratory activity against human HCT-116 cells at 25 nM measured after 48 hrs by wound healing assay; assay type: functional, cell-based
[7] = Selectivity index, ratio of IC50 for human L02 cells to IC50 for human A549 cells; assay type: toxicity; conditions: L02 cells and A549 cells, read-out: Ratio IC50
[8] = Cytotoxicity against human L02 cells measured after 72 hrs
[9] = molecular target: T3, Histone deacetylase 1/2/3 (Homo sapiens) (UniProt Q13547+O15379+Q92769); assay: Inhibition of HDAC1/HDAC2/HDAC3 in human HCT-116 cells assessed as increase in accumulation of acetylated histone H3 measured after 48 hrs by Western blot analysis; assay type: cell-based; conditions: dose 200-800 nM, DDE = dose-dependent effect
HCT-116 [10] = assay: Induction of apoptosis in human HCT-116 cells assessed as appearance of smaller nuclei measured after 48 hrs by Hoechst 33342 staining based assay; assay type: functional, cell-based; conditions: dose 50-200 nM, DDE = dose-dependent effect
[11] = molecular target: T3, Histone deacetylase 1/2/3 (Homo sapiens); assay: Inhibition of HDAC1/HDAC2/HDAC3 in human HCT-116 cells assessed as increase in accumulation of acetylated histone H4 measured after 48 hrs by Western blot analysis; assay type: cell-based; conditions: dose 200-800 nM, DDE = dose-dependent effect
HCT-116 [12] = assay: Cell cycle arrest in human HCT-116 cells assessed as increase in accumulation at G2/M phase measured after 48 hrs by propidium iodide staining based flow cytometry; assay type: functional; conditions: dose 50-200 nM, DDE = dose-dependent effect
HCT-116 [13] = assay: Induction of apoptosis in human HCT-116 cells measured after 48 hrs by Annexin-FITC/propidium iodide staining based flow cytometry; assay type: functional, cell-based; conditions: dose 50-200 nM, DDE = dose-dependent effect
Homo sapiens [14] = species: Homo sapiens; assay: Selectivity ratio of IC50 for HDAC6 (unknown origin) to IC50 for HDAC1 (unknown origin)
HCT-116 [15] = assay: Induction of apoptosis in human HCT-116 cells assessed as apoptotic cells at 100 nM measured after 48 hrs by Annexin-FITC/propidium iodide staining based flow cytometry relative to control; assay type: functional
Homo sapiens [16] = species: Homo sapiens; assay: Selectivity ratio of IC50 for HDAC6 (unknown origin) to IC50 for HDAC3 (unknown origin)
HCT-116 [17] = assay: Induction of apoptosis in human HCT-116 cells assessed as chromatin condensation measured after 48 hrs by Hoechst 33342 staining based assay; assay type: functional, cell-based; conditions: dose 50-200 nM, DDE = dose-dependent effect
Histone deacetylase 2 = Histone deacetylase 2 (Homo sapiens, UniProt Q92769); assay: Inhibition of HDAC2 (unknown origin)
Histone deacetylase 1 = Histone deacetylase 1 (Homo sapiens, UniProt Q13547); assay: Inhibition of HDAC1 (unknown origin)
Histone deacetylase 1, sequence (Q13547 whole entry): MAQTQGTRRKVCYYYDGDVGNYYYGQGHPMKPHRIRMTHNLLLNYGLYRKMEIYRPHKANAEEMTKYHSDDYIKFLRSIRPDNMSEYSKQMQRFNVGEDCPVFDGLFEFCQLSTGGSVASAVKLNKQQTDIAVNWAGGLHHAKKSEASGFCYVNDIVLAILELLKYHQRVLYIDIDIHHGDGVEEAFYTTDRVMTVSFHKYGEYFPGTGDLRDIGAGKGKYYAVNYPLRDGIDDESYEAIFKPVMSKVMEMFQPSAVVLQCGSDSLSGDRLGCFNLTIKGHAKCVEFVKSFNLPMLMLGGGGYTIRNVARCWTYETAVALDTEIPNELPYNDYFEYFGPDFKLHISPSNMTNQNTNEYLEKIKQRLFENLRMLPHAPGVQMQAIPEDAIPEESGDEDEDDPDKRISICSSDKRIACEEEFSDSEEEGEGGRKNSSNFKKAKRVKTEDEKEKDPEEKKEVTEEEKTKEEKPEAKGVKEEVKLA

Histone deacetylase 2, sequence (Q92769 whole entry): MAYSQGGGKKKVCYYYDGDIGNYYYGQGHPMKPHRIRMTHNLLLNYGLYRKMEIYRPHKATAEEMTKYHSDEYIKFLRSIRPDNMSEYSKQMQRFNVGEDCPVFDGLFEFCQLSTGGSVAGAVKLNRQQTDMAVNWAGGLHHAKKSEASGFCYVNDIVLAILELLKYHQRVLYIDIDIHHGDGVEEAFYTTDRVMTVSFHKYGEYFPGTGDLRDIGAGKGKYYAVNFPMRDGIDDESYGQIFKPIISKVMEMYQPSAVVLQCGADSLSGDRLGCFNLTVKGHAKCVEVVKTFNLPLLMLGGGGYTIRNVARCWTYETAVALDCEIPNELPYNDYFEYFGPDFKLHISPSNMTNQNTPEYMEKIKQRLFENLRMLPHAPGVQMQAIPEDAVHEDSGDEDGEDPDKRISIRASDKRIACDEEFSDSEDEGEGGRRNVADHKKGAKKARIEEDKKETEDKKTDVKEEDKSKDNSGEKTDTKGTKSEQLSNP
Histone deacetylase 3, sequence (O15379 whole entry): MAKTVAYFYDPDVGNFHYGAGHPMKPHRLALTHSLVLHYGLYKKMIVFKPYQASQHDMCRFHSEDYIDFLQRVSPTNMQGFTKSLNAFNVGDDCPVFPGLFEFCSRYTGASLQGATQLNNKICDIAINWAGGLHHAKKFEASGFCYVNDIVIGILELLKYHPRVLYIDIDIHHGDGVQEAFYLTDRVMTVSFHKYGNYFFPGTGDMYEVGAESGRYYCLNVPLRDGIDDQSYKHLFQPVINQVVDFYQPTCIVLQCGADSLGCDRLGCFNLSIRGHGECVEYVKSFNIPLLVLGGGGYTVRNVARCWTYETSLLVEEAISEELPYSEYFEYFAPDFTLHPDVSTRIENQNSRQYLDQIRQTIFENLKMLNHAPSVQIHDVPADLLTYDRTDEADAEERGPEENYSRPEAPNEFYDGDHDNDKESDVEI

Row | Structure (SMILES) | IC50 (MCF7) [nM] | IC50 (HCT-116 [1]) [nM] | IC50 (A549) [nM] | IC50 (SW480) [nM] | other results
1 | COc1cc(OCC(=O)NO)ccc1CNCCc1c[nH]c2ccccc12 | > 10000 | > 10000 |  |  | 
2 | O=C(COc1ccc(CNCCc2c[nH]c3ccccc23)cc1Cl)NO | 1080 | 1940 |  |  | 
3 | Cc1[nH]c2ccccc2c1C1=CCN(Cc2ccc(OCC(=O)NO)cc2)CC1 | 1590 | 301 | 615 | 697 | 
4 | O=C(COc1ccc(CN2CC=C(c3c[nH]c4cccc(F)c34)CC2)cc1)NO |  | 969 |  | 2310 | 
5 | O=C(COc1ccc(CN2CC=C(c3c[nH]c4ccc(F)cc34)CC2)cc1)NO |  | 949 |  | 1110 | 
6 | Cc1[nH]c2ccccc2c1C1=CCN(Cc2ccc(OCC(=O)NO)cc2F)CC1 |  | 1220 |  | 1600 | 
7 | Cc1[nH]c2cccc(F)c2c1C1=CCC(NCc2ccc(OCC(=O)NO)cc2F)CC1 (stereo not given) | 1180 | 254 | 244 |  | 
8 | Cc1[nH]c2ccccc2c1C1=CCC(NCc2ccc(OCC(=O)NO)cc2F)C(F)C1 (stereo not given) | 2310 | 733 | 501 | 509 | 

The next lines start with results.

Row | IC50 (MCF7) [nM] | IC50 (HCT-116 [1]) [nM] | IC50 (A549) [nM] | IC50 (SW480) [nM] | Structure (SMILES) | other results
9 | 1420 | 261 | 304 | 179 | O=C(COc1ccc(CNC2CC=C(c3c[nH]c4ccc(F)cc34)CC2)c(F)c1)NO (stereo not given) | 
10 |  | > 5000 |  | > 5000 | O=C(COc1ccc(C(=O)NC2CC=C(c3c[nH]c4cccc(F)c34)CC2)cc1)NO (stereo not given) | 
11 |  | 1410 |  | 1490 | O=C(COc1ccc(C(=O)N2CC=C(c3c[nH]c4cccc(F)c34)CC2)cc1)NO | 
12 | 221 | 192 |  |  | O=C(COc1ccc(CNCCc2c[nH]c3ccccc23)cc1)NO | 
13 | 912 | 99 | 130 | 170 | Cc1[nH]c2ccccc2c1C1=CCC(NCc2ccc(OCC(=O)NO)cc2F)CC1 (stereo not given) | Ratio IC50 (Homo sapiens [2]): 3; IC50 (Histone deacetylase 3): 3.8 nM; inhibition (HCT-116 [3]): Dde; Activity (HCT-116 [4]): 91.5%; IC50 [5]: 13 nM; IC50 (Histone deacetylase 8): 86 nM; Activity (HCT-116 [6]): Active; selectivity ratio [7]: 20; IC50 at 72 h [8]: 2300 nM; inhibition [9]: Dde; Activity (HCT-116 [10]): Dde; inhibition [11]: Dde; Activity (HCT-116 [12]): Dde; Activity (HCT-116 [13]): Dde; Ratio IC50 (Homo sapiens [14]): 3; Activity (HCT-116 [15]): 81.8%; Ratio IC50 (Homo sapiens [16]): 3; Activity (HCT-116 [17]): Dde; IC50 (Histone deacetylase 2): 1.9 nM; IC50 (Histone deacetylase 1): 1.6 nM
14 | 77 | 46 |  |  | O=C(COc1ccc(CNCCc2c[nH]c3ccccc23)c(F)c1)NO | IC50 (Histone deacetylase 3): 6.3 nM; IC50 [5]: 14 nM; IC50 (Histone deacetylase 8): 90 nM; IC50 at 72 h [8]: 1560 nM; IC50 (Histone deacetylase 2): 3.1 nM; IC50 (Histone deacetylase 1): 2.1 nM
15 |  | > 5000 |  | > 5000 | Cc1[nH]c2ccccc2c1C1=CCN(C(=O)c2ccc(OCC(=O)NO)cc2)CC1 | 
